# Test results: patent publication US20040073277A1, “High fluence rate activation of photosensitizers for dermatological applications” (priority 2002, published 2004)
# Where two headings read alike, the source gives them in different places.
# How the values were obtained:
# [1] = test system: actinic keratoses; assay: ALA-PDT of lesional skin with pulsed dye laser below the purpura threshold; type: in vivo, human
# Protocol: The present invention is generally directed to a method for activation of photodynamic sensitizers in dermatologic application.
# The pulsed dye laser was operated below the purpura threshold of the skin at a fluence of about 3.0 to about 7.5 J/cm^2. […] Treatment was performed and successful with and without surface cooling. Surface cooling provided epidermal protection and additional pain reduction.
# [2] = test system: acne; settings: 20% ALA for 3 hours on the back; broadband lamp 550 to 700 nm, 150 J/cm^2; cited from earlier work
# [3] = test system: acne; settings: red light from a halogen lamp, 13 J/cm^2; cited from earlier work
# [4] = test system: actinic keratoses; settings: irradiation 4 hours after ALA, 580 to 740 nm lamp, 20 J/cm^2; cited from earlier work
# [5] = test system: actinic keratoses; settings: cited from earlier work
# [6] = test system: hair follicles; settings: photodynamic injury to hair follicles; cited from earlier work
# [7] = test system: photoaged or wrinkled skin; settings: following ALA-PDT; cited from earlier work
# [8] = actinic keratoses, pulsed dye laser 595 nm below purpura threshold
# [9] = 20% ALA for 6 hours, 585 nm, 1.5 milliseconds, 18 J/cm^2
structure (smiles),measurement,setting,value
"NCC(=O)CCC(=O)O [ALA, 5-Aminolevulinic acid]",treatment outcome of the lesion,"[1]; ALA applied to lesional skin, pulsed dye laser 595 nm, pulse duration 3 to 40 milliseconds, fluence about 3.0 to about 7.5 J/cm^2",successfully treated
same,"pain, crusting and erosions of treated lesions",[1]; [8],reduction in pain and in crusting and erosions
same,purpura,[1]; [8],without purpura
same,efficacy compared with conventional ALA-PDT,[1]; pulsed light source,efficacy equivalent to conventional ALA-PDT
same,side effects compared with conventional ALA-PDT,[1]; pulsed light source,fewer and minimal side effects
same,acne response,[2],improved
same,side effects,[2],"erythema, edema, exfoliation, and long-lasting hyperpigmentation"
same,side effects,[3],"edematous erythema, epidermal exfoliation and irritation lasting several days, and pigmentation changes"
same,therapeutic response,[3],excellent therapeutic response
same,time for treated skin to return to normal,[3],one month
same,side effects,[4],erythema and skin erosions occurred
same,efficacy of pulsed dye laser versus conventional lamp,[5]; [9],similar
same,pain with pulsed dye laser versus conventional lamp,[5]; [9],significantly lower
same,duration of purpura after treatment,"[5]; pulsed dye laser only, 585 nm, 1.5 milliseconds, 18 J/cm^2",up to two weeks
same,duration of erythema and crusting after treatment,[5]; similar for pulsed dye laser and conventional lamp,up to two weeks
same,excessive or unwanted hair,[6],reduced
same,photoaged or wrinkled skin,[7],improve
